PMC10500568, “Inhibition of MurA Enzyme from Escherichia coli by Flavonoids and Their Synthetic Analogues” (ACS Omega, 2023)
Like-named read-outs stand apart in the source and are kept apart here.

Assays:
MurA enzyme from E. coli [1] = molecular target: T1, MurA enzyme from E. coli (Escherichia coli, UniProt P0A749); assay: MurA dilution assay; assay type: biochemical; settings: for RA% (residual activity), dilution assay: compound at 10 times IC50, 30 min preincubation, then 100-fold dilution
Description: The enzyme concentration used was the usual concentration in reactivity assays 100-fold (25 μM). After 30 min of preincubation, the mixture was diluted 100-fold, then the previously described reactivity assay was performed using 100 μM PEP.

E. coli (ATCC 25922) = assay: Antibacterial assay, broth microdilution MIC; assay type: cell-based, Escherichia coli; settings: for MIC: Escherichia coli
Description: (§1) To test antimicrobial properties, a broth microdilution method in 96-well plates was used according to Clinical and Laboratory Standards Institute guidelines[31] and European Committee on Antimicrobial Susceptibility Testing ([…]) recommendations.[32] Bacterial suspensions, equivalent to a 0.5 McFarland turbidity standard, were diluted with cation-adjusted Mueller–Hinton broth with TES buffering (ThermoFisher Scientific) to achieve a final inoculum of 10^5 CFU/mL. Compounds dissolved in 100% DMSO at a concentration of 10 mM were mixed with the inoculum and incubated at 35 °C for 20 h.

S. aureus (ATCC 29213) = assay: Antibacterial assay, broth microdilution MIC; assay type: cell-based, Staphylococcus aureus; settings: for MIC: Staphylococcus aureus; for inhibition of S. aureus growth: broth microdilution
Description: as §1

MurA enzyme from E. coli [2] = molecular target: T1, MurA enzyme from E. coli; assay: MurA inhibition assay (malachite green, orthophosphate release); assay type: biochemical; settings: for effect of DTT on inhibition (comparison of RAs): in the presence of DTT; for inhibitory activity on MurA in at least one of the three assays: residual activity at 100 μM, threshold 50% RA, no preincubation, 30 min preincubation, or 30 min + DTT; for remaining activity at 100 µM / time-dependent inhibition: inactive without preincubation, activity after 30 min of preincubation: 100 μM; for time-dependent inhibition: inactive without preincubation, activity after 30 min of preincubation: 0 min vs 30 min preincubation
Description: To determine the inhibition of MurA, the colorimetric assay with malachite green was used to measure the release of orthophosphate generated during the reaction.[30] […] Time-dependent inhibition assays were also performed by preincubating MurA with the 200 μM UNAG substrate and target compounds for 30 min at 37 °C before starting the reaction with the addition of the second substrate 100 μM PEP, resulting in a final mixture volume of 50 μL. The reaction was stopped after a 15 min incubation at 37 °C by adding the Biomol reagent (100 μL, Enzo Life Sciences, New York), and the absorbance was measured after 5 min at 650 nm using a microplate reader (BioTek, Synergy H4). The final concentration of DMSO in the reaction mixture was 5% (v/v), and 1 μM fosfomycin was used as a reference in the MurA assay. The percentage of residual activity was calculated in comparison to the negative controls, which contained only 5% DMSO. IC50 values were determined by measuring residual activities at 7 different concentrations of the compounds and calculated using GraphPad Prism (GraphPad Software, San Diego, California).
The initial screening of flavonoids was performed under three different assay conditions: (1) without preincubation, (2) with a 30 min preincubation, and (3) with the addition of dithiothreitol (DTT) along with a 30 min preincubation. These different conditions were necessary to understand the mechanism of inhibition of each flavonoid. […] To distinguish whether the adduct formed between the inhibitor and the enzyme was covalent or noncovalent, the inhibitory activity was tested in the presence of 0.1 mM DTT.

[3] = ATCC25922, E. coli ATCC 25922, 35 °C, 20 h, read-out: MIC E. coli
[4] = ATCC29213, S. aureus ATCC 29213, 35 °C, 20 h, read-out: MIC S. aureus
[5] = 30 min preincubation with addition of DTT (0.1 mM), read-out: RA% (residual activity), 30 min + DTT
[6] = 30 min preincubation, read-out: IC50, 30 min
[7] = without preincubation, read-out: IC50, 0 min
[8] = without preincubation, read-out: RA% (residual activity), 0 min

T1 sequence (P0A749 whole entry): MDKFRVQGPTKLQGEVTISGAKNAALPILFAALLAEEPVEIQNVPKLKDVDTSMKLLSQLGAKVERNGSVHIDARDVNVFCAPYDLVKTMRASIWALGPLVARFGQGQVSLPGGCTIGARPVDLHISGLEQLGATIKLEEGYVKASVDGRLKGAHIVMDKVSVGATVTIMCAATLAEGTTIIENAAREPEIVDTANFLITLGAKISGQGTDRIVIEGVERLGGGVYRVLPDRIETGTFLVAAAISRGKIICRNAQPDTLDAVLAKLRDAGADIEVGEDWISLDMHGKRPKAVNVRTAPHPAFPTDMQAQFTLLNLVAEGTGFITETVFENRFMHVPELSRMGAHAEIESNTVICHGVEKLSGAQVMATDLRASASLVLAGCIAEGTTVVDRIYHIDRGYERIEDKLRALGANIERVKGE

| Compound | RA% (residual activity), dilution assay (MurA enzyme from E. coli [1]) | MIC (E. coli (ATCC 25922); [3]) | MIC (S. aureus (ATCC 29213); [4]) | remaining activity at 100 µM (MurA enzyme from E. coli [2]; [5]) | Hill coefficient, 30 min (MurA enzyme from E. coli [2]; 30 min preincubation) | effect of DTT on inhibition (comparison of RAs) (MurA enzyme from E. coli [2]; 30 min preincubation) | IC50 (MurA enzyme from E. coli [2]; [6]) | inhibitory activity on MurA in at least one of the three assays (MurA enzyme from E. coli [2]) | Hill coefficient, 0 min (MurA enzyme from E. coli [2]; without preincubation) | IC50 (MurA enzyme from E. coli [2]; [7]) | time-dependent inhibition: inactive without preincubation, activity after 30 min of preincubation (MurA enzyme from E. coli [2]) | MIC (E. coli (ATCC 25922); ATCC25922, 20 h, read-out: MIC E. coli) | MIC (S. aureus (ATCC 29213); ATCC29213, 20 h, read-out: MIC S. aureus) | remaining activity at 100 µM (MurA enzyme from E. coli [2]; [8]) | inhibition of S. aureus growth (S. aureus (ATCC 29213)) | inhibitory activity after dilution (MurA enzyme from E. coli [1]; dilution assay) | effect on E. coli growth (E. coli (ATCC 25922); broth microdilution) | Hill coefficient (dose-response curves at 0 and 30 min) (MurA enzyme from E. coli [2]) | MIC (E. coli (ATCC 25922); ATCC25922, E. coli ATCC 25922, read-out: MIC E. coli (positive control)) | MIC (S. aureus (ATCC 29213); ATCC29213, S. aureus ATCC 29213, read-out: MIC S. aureus (positive control)) |
| --- | --- | --- | --- | --- | --- | --- | --- | --- | --- | --- | --- | --- | --- | --- | --- | --- | --- | --- | --- | --- |
| O=c1c(O)c(-c2ccc(O)c(O)c2)oc2cc(O)ccc12 [Compound 2, fisetin] | 98% | > 250 µM | > 250 µM | 60% | 1.0 | reduced inhibition in the presence of DTT | 8.8 µM | showed inhibitory activity | 1.4 | 91 µM |  |  |  |  |  |  |  |  |  |  |
| O=c1c(O)c(-c2cc(O)c(O)c(O)c2)oc2cc(O)cc(O)c12 [Compound 4, myricetin] | 84% | > 250 µM | > 250 µM | 34% | 1.9 | reduced inhibition in the presence of DTT |  | showed inhibitory activity | 0.8 |  | active after 30 min of preincubation |  |  |  |  |  |  |  |  |  |
| COc1cc(O)c2c(=O)c(O)c(-c3ccc(O)c(O)c3)oc2c1 [Compound 8, rhamnetin] | 77% | > 250 µM | > 250 µM | 58% | 1.1 | reduced inhibition in the presence of DTT | 13 µM | showed inhibitory activity | 1.1 | 96 µM |  |  |  |  |  |  |  |  |  |  |
| O=c1c(O)c(-c2ccc(O)c(O)c2)oc2cc(O)cc(O)c12 [Compound 9, quercetin] | 93% | > 250 µM | > 250 µM | 46% | 1.3 | reduced inhibition in the presence of DTT | 9.3 µM | showed inhibitory activity | 0.8 | 14 µM |  |  |  |  |  |  |  |  |  |  |
| C[C@@H]1O[C@@H](Oc2c(-c3ccc(O)c(O)c3)oc3cc(O)cc(O)c3c2=O)[C@H](O)[C@H](O)[C@H]1O [Compound 10, quercitrin] | 88% |  |  | 103% | 1.1 |  | 33 µM | showed inhibitory activity |  |  | active after 30 min of preincubation | > 250 µM | > 250 µM | 66% |  |  |  |  |  |  |
| O=c1cc(-c2ccccc2)oc2c(O)c(O)ccc12 [Compound 25, 7,8-dihydroxyflavone] | 100% | > 250 µM | 125 µM | 89% | 1.4 |  | 12.9 µM | showed inhibitory activity | 2 | 88 µM |  |  |  |  | weak inhibition |  |  |  |  |  |
| O=c1cc(-c2ccccc2)oc2cc(O)c(O)c(O)c12 [Compound 26, baicalein] | 50% | > 250 µM | 31 µM | 86% | 1.4 |  | 61 µM | showed inhibitory activity |  |  | active after 30 min of preincubation |  |  | 66% | weak inhibition | retained some inhibitory activity | had no effect |  |  |  |
| Oc1cc(O)c2c(c1)O[C@H](c1ccc(O)c(O)c1)[C@@H](O)[C@H]2O [Compound 35, leucocyanidin] |  | > 250 µM | > 250 µM | 13% | 2.9 | reduced inhibition in the presence of DTT | 28.6 µM | showed inhibitory activity | 2.6 | 69 µM |  |  |  |  |  |  |  | > 2.5 |  |  |
| O=C1C[C@@H](c2ccccc2)Oc2ccccc21 [Compound 46, flavanone] |  |  |  |  |  |  |  | showed inhibitory activity |  |  |  |  |  |  |  |  |  |  |  |  |
| O=C1c2c(O)cc(O)cc2OC(c2ccc(O)c(O)c2)C1O (stereo not drawn) [Compound 47, taxifolin] | 93% | > 250 µM | > 250 µM | 105% | 0.5 |  | 4.5 µM | showed inhibitory activity |  |  | active after 30 min of preincubation |  |  | 98% |  |  |  |  |  |  |
| COc1cc(O)cc2c1C(=O)C[C@@H](c1ccccc1)O2 [Compound 48, (−)-alpinetin] | 93% | > 250 µM | > 250 µM | 102% | 1.6 |  | 57 µM |  |  |  | active after 30 min of preincubation |  |  | 66% |  |  |  |  |  |  |
| O=C1c2c(O)cc(O)cc2O[C@H](c2cc(O)c(O)c(O)c2)[C@H]1O [Compound 49, ampelopsin] | 100% | > 250 µM | 125 µM | 101% | 0.8 |  | 0.48 µM | showed inhibitory activity | 0.8 | 36 µM |  |  |  |  | weak inhibition |  |  | ~1 |  |  |
| CN(C)[C@@H]1C(O)=C(C(N)=O)C(=O)[C@@]2(O)C(O)=C3C(=O)c4c(O)cccc4[C@@](C)(O)[C@H]3C[C@@H]12 [tetracycline, reference compound] |  |  |  |  |  |  |  |  |  |  |  |  |  |  |  |  |  |  | 1 µg/mL | 0.5 µg/mL |
